Molecular target: NAMPT enzyme (Homo sapiens (Human), UniProt P43490)
Assay: Enzyme Assay and NMN Detection (NAMPT reaction, fluorescence detection of NMN)
Type: biochemical
Conditions: Table B-1; NAMPT activation, NMN formation
Outline: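 NMN formed was read at ex380/em460 after acetophenone/KOH derivatization and formic acid addition, using a same-day calibration curve. Final conditions: NAMPT 16 nM, nicotinamide 5 uM, PRPP 6.25 uM, ATP 120 uM, pyrophosphatase 0.04 U/ml, pH 7.5 HEPES buffer with MgCl2 and TCEP, 2 h at room temperature.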

Sequence of NAMPT enzyme (P43490 whole entry, species assumed): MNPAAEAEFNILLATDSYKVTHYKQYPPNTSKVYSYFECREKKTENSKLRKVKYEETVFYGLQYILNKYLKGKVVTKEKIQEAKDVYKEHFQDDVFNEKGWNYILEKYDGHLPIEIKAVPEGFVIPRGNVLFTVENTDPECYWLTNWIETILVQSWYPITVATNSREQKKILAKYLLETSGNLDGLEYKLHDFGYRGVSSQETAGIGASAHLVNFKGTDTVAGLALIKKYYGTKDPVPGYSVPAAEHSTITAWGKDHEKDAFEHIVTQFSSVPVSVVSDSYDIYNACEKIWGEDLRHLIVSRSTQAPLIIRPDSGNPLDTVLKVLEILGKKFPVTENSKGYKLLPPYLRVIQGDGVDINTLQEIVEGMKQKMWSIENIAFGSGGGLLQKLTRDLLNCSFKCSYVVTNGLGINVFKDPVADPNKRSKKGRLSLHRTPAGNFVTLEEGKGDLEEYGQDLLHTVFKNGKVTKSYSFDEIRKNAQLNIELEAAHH

SMILES | EC50 [nM]
COc1ccc(S(=O)(=O)c2ccc(NC(=O)NCc3cn[nH]c3)cc2)cc1 [1-[4-(4-Methoxy-benzenesulfonyl)-phenyl]-3-(1H-pyrazol-4-ylmethyl)-urea] | < 100
O=C(NCc1cn[nH]c1)Nc1ccc(S(=O)(=O)N2CC3CCC(C2)O3)cc1 [1-[4-(8-Oxa-3-aza-bicyclo[3.2.1]octane-3-sulfonyl)-phenyl]-3-(1H-pyrazol-4-ylmethyl)-urea] | 100 to 2000

Same assay, conditions: Table B-2; NAMPT activation, NMN formation

SMILES | EC50 [nM]
COc1ccc(S(=O)(=O)c2ccc(NC(=O)NCc3ccncc3)cc2)cc1 [1-[4-(4-Methoxy-benzenesulfonyl)-phenyl]-3-pyridin-4-ylmethyl-urea] | 100 to 2000
CN1CCN(S(=O)(=O)c2ccc(NC(=O)NCc3ccncc3)cc2)CC1 [1-[4-(4-Methyl-piperazine-1-sulfonyl)-phenyl]-3-pyridin-4-ylmethyl-urea] | 100 to 2000
O=C(NCc1ccncc1)Nc1ccc(S(=O)(=O)N2CCc3cccc(Cl)c3C2)cc1 [1-[4-(8-Chloro-3,4-dihydro-1H-isoquinoline-2-sulfonyl)-phenyl]-3-pyridin-4-ylmethyl-urea] | < 100
O=C(NCc1ccncc1)Nc1ccc(S(=O)(=O)N2CCc3cccc(F)c3C2)cc1 [1-[4-(8-Fluoro-3,4-dihydro-1H-isoquinoline-2-sulfonyl)-phenyl]-3-pyridin-4-ylmethyl-urea] | < 100
Cc1cccc2c1CN(S(=O)(=O)c1ccc(NC(=O)NCc3ccncc3)cc1)CC2 [1-[4-(8-Methyl-3,4-dihydro-1H-isoquinoline-2-sulfonyl)-phenyl]-3-pyridin-4-ylmethyl-urea] | < 100
O=C(NCc1ccncc1)Nc1ccc(S(=O)(=O)N2CC3CCC(C2)O3)cc1 [1-[4-(8-Oxa-3-aza-bicyclo[3.2.1]octane-3-sulfonyl)-phenyl]-3-pyridin-4-ylmethyl-urea] | 100 to 2000
O=C(NCc1ccncc1)Nc1ccc(S(=O)(=O)N2CCOCC2)cc1 [1-[4-(Morpholine-4-sulfonyl)-phenyl]-3-pyridin-4-ylmethyl-urea] | 100 to 2000
O=C(NCc1ccncc1)Nc1ccc(S(=O)(=O)N2CCNCC2)cc1 [1-[4-(Piperazine-1-sulfonyl)-phenyl}-3-pyridin-4-ylmethyl-urea] | 5000 to 20000
O=C(NCc1ccncc1)Nc1ccc(S(=O)(=O)N2CCCCC2)cc1 [1-[4-(Piperidine-1-sulfonyl)-phenyl]-3-pyridin-4-ylmethyl-urea] | 100 to 2000

Same assay, conditions: Table B-3; NAMPT activation, NMN formation

SMILES | EC50 [nM]
O=C(NCc1ccccn1)Nc1ccc(S(=O)(=O)N2CC3CCC(C2)O3)cc1 [1-[4-(8-Oxa-3-aza-bicyclo[3.2.1]octane-3-sulfonyl)-phenyl]-3-pyridin-2-ylmethyl-urea] | > 20000
CCOC(=O)c1ccc2c(cnn2C(=O)NCc2ccncc2)c1 [1-[(Pyridin-4-ylmethyl)-carbamoyl]-1H-indazole-5-carboxylic acid ethyl ester] | > 20000

Same assay, conditions: Table B-4; NAMPT activation, NMN formation

SMILES | EC50 [nM]
O=C(NCc1cn[nH]c1)Nc1ccc(S(=O)(=O)c2ccccc2-c2ccc(F)cc2)cc1 [1-[4-(4′-Fluoro-biphenyl-2-sulfonyl)-phenyl]-3-(1H-pyrazol-4-ylmethyl)-urea] | 100 to 2000
COc1ccc(-c2ccccc2S(=O)(=O)c2ccc(NC(=O)NCc3cn[nH]c3)cc2)cc1 [1-[4-(4′-Methoxy-biphenyl-2-sulfonyl)-phenyl]-3-(1H-pyrazol-4-ylmethyl)-urea] | 5000 to 20000
Cc1ccc(-c2ccccc2S(=O)(=O)c2ccc(NC(=O)NCc3cn[nH]c3)cc2)cc1 [1-[4-(4′-Methyl-biphenyl-2-sulfonyl)-phenyl]-3-(1H-pyrazol-4-ylmethyl)-urea] | 5000 to 20000
O=C(NCc1cn[nH]c1)Nc1ccc(S(=O)(=O)c2ccc(Cl)cn2)cc1 [1-[4-(5-Chloro-pyridine-2-sulfonyl)-phenyl]-3-(1H-pyrazol-4-ylmethyl)-urea] | 100 to 2000
Cn1nc(-c2ccc(NC(=O)NCc3cn[nH]c3)cc2)c2cc(F)ccc21 [1-[4-(5-Fluoro-1-methyl-1H-indazol-3-yl)-phenyl]-3-(1H-pyrazol-4-ylmethyl)-urea] | 100 to 2000
COc1ccc2c(c1)c(-c1ccc(NC(=O)NCc3cn[nH]c3)cc1)nn2C [1-[4-(5-Methoxy-1-methyl-1H-indazol-3-yl)-phenyl]-3-(1H-pyrazol-4-ylmethyl)-urea] | 100 to 2000
Cc1ccc(S(=O)(=O)c2ccc(NC(=O)NCc3cn[nH]c3)cc2)nc1 [1-[4-(5-Methyl-pyridine-2-sulfonyl)-phenyl]-3-(1H-pyrazol-4-ylmethyl)-urea] | 100 to 2000
Cc1ccc(S(=O)(=O)c2ccc(NC(=O)NCc3cn[nH]c3)cc2)cn1 [1-[4-(6-Methyl-pyridine-3-sulfonyl)-phenyl]-3-(1H-pyrazol-4-ylmethyl)-urea] | 100 to 2000
O=C(NCc1cn[nH]c1)Nc1ccc(S(=O)(=O)c2cnccn2)cc1 [1-[4-(Pyrazine-2-sulfonyl)-phenyl]-3-(1H-pyrazol-4-ylmethyl)-urea] | 100 to 2000
O=C(NCc1cn[nH]c1)Nc1ccc(Nc2nc(-c3ccccc3Cl)cs2)cc1 [1-{4-[4-(2-Chloro-phenyl)-thiazol-2-ylamino]-phenyl}-3-(1H-pyrazol-4-ylmethyl)-urea] | 5000 to 20000

Same assay, conditions: Table B-5; NAMPT activation, NMN formation

SMILES | EC50 [nM]
COc1ccc(S(=O)(=O)c2ccc(NC(=O)NCc3cnco3)cc2)cc1 [1-[4-(4-Methoxy-benzenesulfonyl)-phenyl]-3-oxazol-5-ylmethyl-urea] | 100 to 2000
O=C(NCc1cnco1)Nc1ccc(S(=O)(=O)c2ccc(Cl)cn2)cc1 [1-[4-(5-Chloro-pyridine-2-sulfonyl)-phenyl]-3-oxazol-5-ylmethyl-urea] | 2000 to 5000
Cn1nc(-c2ccc(NC(=O)NCc3cnco3)cc2)c2cc(F)ccc21 [1-[4-(5-Fluoro-1-methyl-1H-indazol-3-yl)-phenyl]-3-oxazol-5-ylmethyl-urea] | 2000 to 5000
COc1ccc2c(c1)c(-c1ccc(NC(=O)NCc3cnco3)cc1)nn2C [1-[4-(5-Methoxy-1-methyl-1H-indazol-3-yl)-phenyl]-3-oxazol-5-ylmethyl-urea] | > 20000
O=C(NCc1cnco1)Nc1ccc(S(=O)(=O)c2ccc(Cl)nc2)cc1 [1-[4-(6-Chloro-pyridine-3-sulfonyl)-phenyl]-3-oxazol-5-ylmethyl-urea] | 2000 to 5000
O=C(NCc1cnco1)Nc1ccc(S(=O)(=O)c2ccc(O)nc2)cc1 [1-[4-(6-Hydroxy-pyridine-3-sulfonyl)-phenyl]-3-oxazol-5-ylmethyl-urea] | 100 to 2000
COc1ccc(S(=O)(=O)c2ccc(NC(=O)NCc3cnco3)cc2)cn1 [1-[4-(6-Methoxy-pyridine-3-sulfonyl)-phenyl]-3-oxazol-5-ylmethyl-urea] | 100 to 2000
Cc1ccc(S(=O)(=O)c2ccc(NC(=O)NCc3cnco3)cc2)cn1 [1-[4-(6-Methyl-pyridine-3-sulfonyl)-phenyl]-3-oxazol-5-ylmethyl-urea] | 100 to 2000

Same assay, conditions: Table B-6; NAMPT activation, NMN formation

SMILES | EC50 [nM]
N#Cc1ccc(S(=O)(=O)c2ccc(NC(=O)NCc3ccncc3)cc2)cc1 [1-[4-(4-Cyano-benzenesulfonyl)-phenyl]-3-pyridin-4-ylmethyl-urea] | 100 to 2000
O=C(NCc1ccncc1)Nc1ccc(S(=O)(=O)c2ccccc2-c2ccc(Cl)cc2)cc1 [1-[4-(4′-Chloro-biphenyl-2-sulfonyl)-phenyl]-3-pyridin-4-ylmethyl-urea] | 5000 to 20000
O=C(NCc1ccncc1)Nc1ccc(S(=O)(=O)c2ccccc2-c2ccc(F)cc2)cc1 [1-[4-(4′-Fluoro-biphenyl-2-sulfonyl)-phenyl]-3-pyridin-4-ylmethyl-urea] | 100 to 2000
COc1ccc(-c2ccccc2S(=O)(=O)c2ccc(NC(=O)NCc3ccncc3)cc2)cc1 [1-[4-(4′-Methoxy-biphenyl-2-sulfonyl)-phenyl]-3-pyridin-4-ylmethyl-urea] | 5000 to 20000
Cc1ccc(-c2ccccc2S(=O)(=O)c2ccc(NC(=O)NCc3ccncc3)cc2)cc1 [1-[4-(4′-Methyl-biphenyl-2-sulfonyl)-phenyl]-3-pyridin-4-ylmethyl-urea] | 2000 to 5000
O=C(NCc1ccncc1)Nc1ccc(S(=O)(=O)c2ccc(Cl)cn2)cc1 [1-[4-(5-Chloro-pyridine-2-sulfonyl)-phenyl]-3-pyridin-4-ylmethyl-urea] | 100 to 2000
Cn1nc(-c2ccc(NC(=O)NCc3ccncc3)cc2)c2cc(F)ccc21 [1-[4-(5-Fluoro-1-methyl-1H-indazol-3-yl)-phenyl]-3-pyridin-4-ylmethyl-urea] | 100 to 2000
COc1ccc2c(c1)c(-c1ccc(NC(=O)NCc3ccncc3)cc1)nn2C [1-[4-(5-Methoxy-1-methyl-1H-indazol-3-yl)-phenyl]-3-pyridin-4-ylmethyl-urea] | 100 to 2000
O=C(NCc1ccncc1)Nc1ccc(S(=O)(=O)c2ccc(Cl)nc2)cc1 [1-[4-(6-Chloro-pyridine-3-sulfonyl)-phenyl]-3-pyridin-4-ylmethyl-urea] | 100 to 2000
O=C(NCc1ccncc1)Nc1ccc(S(=O)(=O)c2ccc(O)nc2)cc1 [1-[4-(6-Hydroxy-pyridine-3-sulfonyl)-phenyl]-3-pyridin-4-ylmethyl-urea] | 100 to 2000
COc1ccc(S(=O)(=O)c2ccc(NC(=O)NCc3ccncc3)cc2)cn1 [1-[4-(6-Methoxy-pyridine-3-sulfonyl)-phenyl]-3-pyridin-4-ylmethyl-urea] | 100 to 2000
Cc1ccc(S(=O)(=O)c2ccc(NC(=O)NCc3ccncc3)cc2)cn1 [1-[4-(6-Methyl-pyridine-3-sulfonyl)-phenyl]-3-pyridin-4-ylmethyl-urea] | 100 to 2000
O=C(NCc1ccncc1)Nc1ccc(Nc2nc3ccccc3s2)cc1 [1-[4-(Benzothiazol-2-ylamino)-phenyl]-3-pyridin-4-ylmethyl-urea] | 5000 to 20000
O=C(NCc1ccncc1)Nc1ccc(S(=O)(=O)c2cnccn2)cc1 [1-[4-(Pyrazine-2-sulfonyl)-phenyl]-3-pyridin-4-ylmethyl-urea] | 100 to 2000
O=C(NCc1ccncc1)Nc1ccc(S(=O)(=O)c2cccnc2)cc1 [1-[4-(Pyridine-3-sulfonyl)-phenyl]-3-pyridin-4-ylmethyl-urea] | 100 to 2000
